Assay results from paper PMC9230136 (Pharmaceutics, 2022).
Like-named read-outs stand apart in the source and are kept apart here.

Experiments:
[1] = tested on: A549, MDA-MB-231, HeLa, HT-29 and Jurkat cancer cell lines; experiment: Antiproliferative activity over the panel of cancer cell lines; format: cell-based, human; settings: for fold reduction in potency (vs 7y): MDA-MB-231 and HT-29 cells
Experimental: Colon adenocarcinoma (HT-29) and T-cell leukemia (Jurkat) cells were grown in RPMI-1640 medium (Gibco, Milano, Italy). Promyelocytic leukemia cells (HL-60), non-small cell lung carcinoma (A549), cervix carcinoma (HeLa) and breast adenocarcinoma (MDA-MB-231) cells were grown in DMEM medium (Gibco, Milano, Italy). Both media were supplemented with 115 units/mL of penicillin G (Gibco, Milano, Italy), 115 μg/mL of streptomycin (Invitrogen, Milano, Italy) and 10% fetal bovine serum (Invitrogen, Milano, Italy). All the cell lines used were purchased from the American Type Culture Collection (ATCC, Manassas, VA, USA). Stock solutions (10 mM) of the compounds were obtained by dissolving them in DMSO.
The cells were seeded in 96-well plates at the appropriate density for each cell line. After 24 h, the cells were treated by performing serial 5-fold dilutions of the tested compounds starting from a concentration of 10 μM. All experimental conditions were tested in triplicate for statistical analysis. The plates were incubated for 72 h at 37 °C in a humidified 5% CO2 atmosphere. At the end of the incubation period, 10 μL of 100 μg/mL resazurin solution was added to each well; then, the plate was re-incubated for 3–4 h. The fluorescence of the wells in each plate was monitored using a Spark 10 M spectrophotometer (Tecan Group Ltd., Mannedorf, Switzerland) with a 535 nm excitation wavelength and a 600 nm emission wavelength.

MDA-MB-231 = experiment: Antiproliferative assay (resazurin, 72 h); format: cell-based, human; settings: for IC50: mean ± SE, 72 h
Method in brief: (§1)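 The highest dose is 10 μM, diluted in five-fold steps, and each condition is run in triplicate. HT-29 uses RPMI-1640 medium; MDA-MB-231, A549 and HeLa use DMEM.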

HeLa = experiment: Antiproliferative assay (resazurin, 72 h); format: cell-based, human
Method in brief: as §1

A549 [2] = experiment: Antiproliferative assay (resazurin, 72 h); format: cell-based, human
Method in brief: as §1

Jurkat = experiment: Antiproliferative assay (resazurin, 72 h); format: cell-based, human; settings: for IC50: mean ± SE, 72 h; for fold increase in activity relative to 7ad: Jurkat cells
Method in brief: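 Compounds dissolved in DMSO as 10 mM stocks were applied to seeded Jurkat cells using 5-fold serial dilutions from 10 μM, with each condition run in triplicate. Following 72 h incubation, 10 μL of 100 μg/mL resazurin was added for 3–4 h, and fluorescence was measured at 535 nm excitation and 600 nm emission.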

HT-29 = experiment: Antiproliferative assay (resazurin, 72 h); format: cell-based, human; settings: mean ± SE, 72 h
Method in brief: as §1

Bovine brain tubulin [3] = experiment: Inhibition of tubulin polymerization; format: biochemical; settings: for IC50: tubulin at 10 μM, read-out: Tubulin Assembly IC50 ± SD
Experimental: (§2) Bovine brain tubulin was purified as described previously. To evaluate the effects of the compounds on tubulin assembly in vitro [35], varying concentrations were preincubated with 10 μM tubulin in 0.8 M monosodium glutamate (pH 6.6) at 30 °C and the reaction mixtures then cooled to 0 °C. After addition of GTP, the mixtures were transferred to 0 °C cuvettes in Beckman Coulter (Brea, CA, USA) DU-7400/DU-7500 recording spectrophotometers equipped with electronic temperature controllers and warmed to 30 °C, and the assembly of tubulin was observed turbidimetrically. […] Inhibition of colchicine binding to tubulin was measured as described before, except that the reaction mixtures contained 0.5 μM tubulin and 5 μM each of [^3H]colchicine and test compound. Only one DEAE-cellulose filter was used per sample, and filtration was by gravity.

Bovine brain tubulin [4] = experiment: Inhibition of [3H]colchicine binding to tubulin; settings: tubulin 0.5 µM, [3H]colchicine 5 µM, compound 5 µM
Experimental: as §2

A549 [5] = settings: read-out: IC50 (compared with 8u on A549); cited from earlier work
[6] = Homo sapiens, all five lines, read-out: IC50 values against all five lines
[7] = Homo sapiens, range over the five tumor lines, read-out: IC50 values, range over the cell lines
[8] = Homo sapiens, MDA-MB-231, Table 1
[9] = Homo sapiens, HeLa, Table 1, mean ± SE
[10] = Homo sapiens, A549, Table 1, mean ± SE
[11] = mean over the five cancer cell lines, read-out: mean IC50 (antiproliferative activity)
[12] = Homo sapiens, four of the five cell lines, read-out: IC50 values against four of the five cell lines
[13] = Homo sapiens, MDA-MB-231, Table 2
[14] = Homo sapiens, HeLa, Table 2, mean ± SE
[15] = Homo sapiens, A549, Table 2, mean ± SE

| IC50 (MDA-MB-231; [8]) [nM] | IC50 (HeLa; [9]) [nM] | IC50 (A549 [2]; [10]) [nM] | IC50 (Jurkat; Homo sapiens, Jurkat, Table 1) [nM] | IC50 (HT-29; Homo sapiens, HT-29, Table 1) [nM] | IC50 (Bovine brain tubulin [3]) [nM] | Colchicine Binding % Inhibition ± SD (Bovine brain tubulin [4]) [%] | melting point [°C] | SMILES | other results |
| --- | --- | --- | --- | --- | --- | --- | --- | --- | --- |
| 301 ± 40 | 60 ± 10 | 420 ± 70 | 430 ± 1 | 110 ± 20 | 660 ± 100 | 27 ± 3 | 146 to 148 | COc1cc(Nc2cc(C)nc3nc(NCc4ccc(C)cc4)nn23)cc(OC)c1OC [Compound 7p, 5-Methyl-N2-(4-methylbenzyl)-N7-(3,4,5-trimethoxyphenyl)-[1,2,4]triazolo [1,5-a]pyrimidine-2,7-diamine] | IC50 [1, 6]: < 1000 nM; IC50 [1, 7]: 60 to 427 nM; fold more potent than 7g ([1]; all cancer cell lines): 2–9 fold; fold less active than 7n ([1]; cell lines other than Jurkat): 2–4 fold; IC50 ([1]; range over the five tumor lines, read-out: IC50 values, range over the cell lines): 60 to 420 nM |
| – | – | – | – | – | 390 ± 10 | 88 ± 3 | – | Cc1cc(Nc2ccc(Cl)cc2)n2nc(NCCCc3ccccc3)nc2n1 [Compound 8s] | IC50 [1, 11]: 91 nM; IC50 (MDA-MB-231; Table 2): 200 ± 70 nM; IC50 (HeLa; Table 2, mean ± SE): 48 ± 1 nM; IC50 (A549 [2]; Table 2, mean ± SE): 70 ± 10 nM; IC50 (Jurkat; Table 2): 83 ± 20 nM; IC50 (HT-29; Table 2): 53 ± 1 nM; fold more potent than CA-4, tubulin polymerization (Bovine brain tubulin [3]): about 2 fold |
| – | – | – | – | – | – | – | – | CC(=O)O[C@@]12CO[C@@H]1C[C@H](O)[C@@]1(C)C(=O)[C@H](O)C3=C(C)[C@@H](OC(=O)[C@H](O)[C@@H](NC(=O)OC(C)(C)C)c4ccccc4)C[C@@](O)([C@@H](OC(=O)c4ccccc4)[C@H]21)C3(C)C [docetaxel] | IC50 (A549 [5]): 19.5 nM |
| – | – | – | – | – | 430 ± 50 | 70 ± 3 | – | C#Cc1cccc(Nc2cc(C)nc3nc(NCCCc4ccccc4)nn23)c1 [Compound 8v] | IC50 (MDA-MB-231; Table 2): 350 ± 10 nM; IC50 (HeLa; Table 2, mean ± SE): 69 ± 10 nM; IC50 (A549 [2]; Table 2, mean ± SE): 110 ± 30 nM; IC50 (Jurkat; Table 2): 160 ± 10 nM; IC50 (HT-29; Table 2): 83 ± 20 nM |
| 560 ± 30 | 520 ± 20 | 1280 ± 130 | 960 ± 60 | 590 ± 260 | – | – | 174 to 176 | COc1cc(Nc2cc(C)nc3nc(NCc4ccc(C(F)(F)F)cc4)nn23)cc(OC)c1OC [Compound 7w, 5-Methyl-N^2-(4-(trifluoromethyl)benzyl)-N^7-(3,4,5-trimethoxyphenyl)-[1,2,4]triazolo [1,5-a]pyrimidine-2,7-diamine] | IC50 [1, 12]: < 1000 nM |
| – | – | – | – | – | – | – | 186 to 188 | Cc1cc(Nc2ccc(F)c(Cl)c2)n2nc(NCc3ccc4c(c3)OCO4)nc2n1 [Compound 8f, N^2-(Benzo[d][1,3]dioxol-5-ylmethyl)-N^7-(3-chloro-4-fluorophenyl)-5-methyl-[1,2,4]triazolo [1,5-a]pyrimidine-2,7-diamine] | fold reduction in potency (vs 7y) [1]: 2–3 fold; IC50 (MDA-MB-231; [13]): 700 ± 160 nM; IC50 (HeLa; [14]): 160 ± 90 nM; IC50 (A549 [2]; [15]): 440 ± 50 nM; IC50 (Jurkat; Homo sapiens, Jurkat, Table 2): 980 ± 60 nM; fold increase in activity relative to 7ad (Jurkat): 3-4 fold; IC50 (HT-29; Homo sapiens, HT-29, Table 2): 300 ± 30 nM |
| 61 ± 9 | 1860 ± 130 | 5890 ± 480 | 4680 ± 480 | 1140 ± 90 | – | – | 156 to 158 | COc1cc(Nc2cc(C)nc3nc(NCc4ccc(F)cc4)nn23)cc(OC)c1OC [Compound 7l, N^2-(4-Fluorobenzyl)-5-methyl-N^7-(3,4,5-trimethoxyphenyl)-[1,2,4]triazolo [1,5-a]pyrimidine-2,7-diamine] | fold less active than 7e ([1]; in four lines): 2-6 fold; fold more potent than 7e (MDA-MB-231; MDA-MB-231 cells): 12 fold |
| 2600 ± 270 | 2080 ± 190 | > 10000 | 4230 ± 1150 | > 10000 | – | – | 248 | COc1cc(Nc2cc(C)nc3nc(-c4ccc(C)cc4)nn23)cc(OC)c1OC [Compound 7c, 5-Methyl-2-(p-tolyl)-N-(3,4,5-trimethoxyphenyl)-[1,2,4]triazolo [1,5-a]pyrimidin-7-amine] | IC50 ([1]; Homo sapiens, read-out: IC50 values (2-para-substituted phenyl derivatives)): < 2000 nM |
| 190 ± 20 | 31 ± 10 | 110 ± 22 | 320 ± 19 | 54 ± 10 | 390 ± 60 | 30 ± 0.3 | 140 to 142 | COc1cc(Nc2cc(C)nc3nc(NCc4ccc(Cl)cc4)nn23)cc(OC)c1OC [Compound 7n, N^2-(4-Chlorobenzyl)-5-methyl-N^7-(3,4,5-trimethoxyphenyl)-[1,2,4]triazolo [1,5-a]pyrimidine-2,7-diamine] | IC50 [1, 6]: < 1000 nM; IC50 [1, 7]: 31 to 323 nM; fold increase in antiproliferative activity vs 7l ([1]; four of the five cell lines): 17–60 fold; fold reduction in activity vs 7l (MDA-MB-231; MDA-MB-231 cells): 3 fold |
| 300 ± 20 | 110 ± 10 | 660 ± 30 | 780 ± 90 | 170 ± 20 | 1000 ± 200 | 19 ± 05 | 190 to 192 | COc1cc(Nc2cc(C)nc3nc(NCc4ccc5c(c4)OCO5)nn23)cc(OC)c1OC [Compound 7y, N^2-(Benzo[d][1,3]dioxol-5-ylmethyl)-5-methyl-N^7-(3,4,5-trimethoxyphenyl)-[1,2,4]triazolo [1,5-a]pyrimidine-2,7-diamine] | IC50 [1, 6]: < 1000 nM; IC50 [1, 7]: 110 to 780 nM; fold increase in activity vs 7i ([1]; all five cell lines): 6–28 fold; fold less active than CA-4, tubulin polymerization (Bovine brain tubulin [3]): 1.5 fold |
| – | – | – | – | – | – | – | – | COc1cccc2c1C(=O)c1c(O)c3c(c(O)c1C2=O)C[C@@](O)(C(=O)CO)C[C@@H]3O[C@H]1C[C@H](N)[C@H](O)[C@H](C)O1 [doxorubicin] | IC50 (A549 [5]): 11600 nM |
| 470 ± 45 | 92 ± 10 | 290 ± 30 | > 10000 | 320 ± 40 | – | – | 251 | COc1cc(Nc2cc(C)nc3nc(Nc4ccc(Cl)cc4)nn23)cc(OC)c1OC [Compound 7f, N2-(4-Chlorophenyl)-5-methyl-N7-(3,4,5-trimethoxyphenyl)-[1,2,4]triazolo [1,5-a]pyrimidine-2,7-diamine] | IC50 [1, 12]: < 1000 nM |
| – | – | – | – | – | – | – | – | CC(=O)O[C@H]1C(=O)[C@@]2(C)[C@H]([C@H](OC(=O)c3ccccc3)[C@]3(O)C[C@H](OC(=O)[C@H](O)[C@@H](NC(=O)c4ccccc4)c4ccccc4)C(C)=C1C3(C)C)[C@]1(OC(C)=O)CO[C@@H]1C[C@@H]2O [paclitaxel] | IC50 (A549 [5]): 3.5 nM |
| – | – | – | – | – | – | – | 168 to 170 | Cc1cc(Nc2ccc(F)cc2)n2nc(NCc3ccc4c(c3)OCO4)nc2n1 [Compound 8g, N^2-(Benzo[d][1,3]dioxol-5-ylmethyl)-N^7-(4-fluorophenyl)-5-methyl-[1,2,4]triazolo [1,5-a]pyrimidine-2,7-diamine] | fold reduction in potency (vs 7y) [1]: 2–3 fold; IC50 (MDA-MB-231; [13]): 600 ± 210 nM; IC50 (HeLa; [14]): 160 ± 70 nM; IC50 (A549 [2]; [15]): 650 ± 280 nM; IC50 (Jurkat; Homo sapiens, Jurkat, Table 2): 200 ± 50 nM; fold increase in activity relative to 7ad (Jurkat): 3-4 fold; IC50 (HT-29; Homo sapiens, HT-29, Table 2): 260 ± 100 nM |
| – | – | – | – | – | 380 ± 20 | 84 ± 2 | – | Cc1cc(Nc2ccc(Br)cc2)n2nc(NCCCc3ccccc3)nc2n1 [Compound 8u] | IC50 [1, 11]: 83 nM; IC50 (MDA-MB-231; Table 2): 120 ± 40 nM; IC50 (HeLa; Table 2, mean ± SE): 22 ± 10 nM; IC50 (A549 [2]; Table 2, mean ± SE): 48 ± 10 nM; IC50 (Jurkat; Table 2): 150 ± 14 nM; IC50 (HT-29; Table 2): 83 ± 20 nM; fold more potent than CA-4, tubulin polymerization (Bovine brain tubulin [3]): about 2 fold |
| – | – | – | – | – | – | – | – | CO[C@H]1C(=O)[C@]2(C)[C@@H](OC)C[C@H]3OC[C@@]3(OC(C)=O)[C@H]2[C@H](OC(=O)c2ccccc2)[C@]2(O)C[C@H](OC(=O)[C@H](O)[C@@H](NC(=O)OC(C)(C)C)c3ccccc3)C(C)=C1C2(C)C [cabazitaxel] | IC50 (A549 [5]): 15 nM |
